According to patent US20220125051A1, “PRE-HARVEST DESICCATION METHOD” (SYNGENTA CROP PROTECTION AG, priority 2019, published 2022):

Assays:
Experiment in all cases: Post-emergence efficacy, Method A
Assay type in all cases: in vivo
[1] = test system: Amaranthus palmeri (AMAPA); settings: Amaranthus palmeri, post-emergence, 312 h; Application rate 500 g/Ha; evaluated after 13 days; 100=total damage to plant, 0=no damage to plant; read-out: Control of weed species after post-emergence application, AMAPA
Method in brief: (§1)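 Sow in standard soil; grow 14 d under glasshouse control (24/16 °C, 14 h light, 65% humidity). Spray post-emergence with compound formulated in acetone/IF50, diluted in Empicol ESC70 (0.25% or 1%) + 1% ammonium sulphate. Return to glasshouse, water twice daily, score at 13 d on a 0–100 damage scale.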

[2] = test system: Chenopodium album (CHEAL); settings: Chenopodium album, post-emergence, 312 h; Application rate 500 g/Ha; evaluated after 13 days; 100=total damage to plant, 0=no damage to plant; read-out: Control of weed species after post-emergence application, CHEAL
Method in brief: as §1

[3] = test system: Digitaria sanguinalis (DIGSA); settings: Digitaria sanguinalis, post-emergence, 312 h; Application rate 500 g/Ha; evaluated after 13 days; 100=total damage to plant, 0=no damage to plant; read-out: Control of weed species after post-emergence application, DIGSA
Method in brief: as §1

[4] = test system: Echinochloa crus-galli (ECHCG); settings: Echinochloa crus-galli, post-emergence, 312 h; Application rate 500 g/Ha; evaluated after 13 days; 100=total damage to plant, 0=no damage to plant; read-out: Control of weed species after post-emergence application, ECHCG
Method in brief: as §1

Eleusine indica (ELEIN) = settings: Eleusine indica, post-emergence, 312 h; Application rate 500 g/Ha; evaluated after 13 days; 100=total damage to plant, 0=no damage to plant; read-out: Control of weed species after post-emergence application, ELEIN
Method in brief: as §1

[5] = test system: Euphorbia heterophylla (EPHHL); settings: Euphorbia heterophylla, post-emergence, 312 h; Application rate 500 g/Ha; evaluated after 13 days; 100=total damage to plant, 0=no damage to plant; read-out: Control of weed species after post-emergence application, EPHHL
Method in brief: as §1

[6] = test system: Ipomoea hederacea (IPOHE); settings: Ipomoea hederacea, post-emergence, 312 h, Application rate 500 g/Ha; evaluated after 13 days; 100=total damage to plant, 0=no damage to plant; read-out: Control of weed species after post-emergence application, IPOHE
Method in brief: as §1

Lolium perenne (LOLPE) = settings: Lolium perenne, post-emergence, 312 h, Application rate 500 g/Ha; evaluated after 13 days; 100=total damage to plant, 0=no damage to plant; read-out: Control of weed species after post-emergence application, LOLPE
Method in brief: as §1

Setaria faberi (SETFA) = settings: Setaria faberi, post-emergence, 312 h; Application rate 500 g/Ha; evaluated after 13 days; 100=total damage to plant, 0=no damage to plant; read-out: Control of weed species after post-emergence application, SETFA
Method in brief: as §1

| SMILES | pest or weed control at 500 g/ha [1] | pest or weed control at 500 g/ha [2] | pest or weed control at 500 g/ha [3] | pest or weed control at 500 g/ha [4] | pest or weed control at 500 g/ha (Eleusine indica (ELEIN)) | pest or weed control at 500 g/ha [5] | pest or weed control at 500 g/ha [6] | pest or weed control at 500 g/ha (Lolium perenne (LOLPE)) | pest or weed control at 500 g/ha (Setaria faberi (SETFA)) |
| --- | --- | --- | --- | --- | --- | --- | --- | --- | --- |
| CC(CC(=O)O)[n+]1ccc(-c2ncccn2)cn1 (stereo not drawn) [Compound A40, 3-(4-pyrimidin-2-ylpyridazin-1-ium-1-yl)butanoic acid 2,2,2-trifluoroacetate] | 90% | 70% | 90% | 90% | 90% | 90% | 100% | 90% | 100% |
| O=C([O-])CC[n+]1ccc(-c2ccc(F)cn2)cn1 [Compound A71] | 100% | 60% | 30% | 30% | 30% | 40% | 40% | 10% | 30% |
| Cc1cc(Cl)cnc1-c1cc[n+](CCCS(=O)(=O)[O-])nc1 [Compound A102] | 20% | 50% | 10% | 10% | 10% | 20% | 0% | 10% | 10% |
| O=C(O)CC[n+]1ccc(-c2ccccn2)cn1 [Compound A148] | 100% | 40% | 50% | 50% | 40% | 60% | 20% | 20% | 50% |
| COc1ccnc(-c2cc[n+](CCS(=O)(=O)[O-])nc2)n1 [Compound A13] | 100% | 50% | 70% | 50% | 100% | 70% | 50% | 50% | 60% |
| Cc1cccc(-c2cc[n+](CCC(=O)[O-])nc2)n1 [Compound A63] | 40% | 30% | 30% | 40% | 50% | 30% | 20% | 20% | 40% |
| O=S(=O)([O-])CC[n+]1ccc(-c2ccccn2)cn1 [Compound A64] | 90% | 90% | 80% | 60% | 100% | 100% | 20% | 80% | 90% |
| O=S(=O)([O-])CC[n+]1ccc(-c2ccc(C(F)(F)F)nn2)cn1 [Compound A122] | 100% | 100% | 40% | 40% | 90% | 100% | 70% | 70% | 60% |
| O=S(=O)([O-])CCC[n+]1ccc(-c2cncc(Cl)n2)cn1 [Compound A84] | 100% | 80% | 50% | 20% | 20% | 90% | 30% | 30% | 50% |
